Data taken from patent US11603373B2, “TDO2 and IDO1 inhibitors” (Genentech, Inc., priority 2017, dated 2023).

Key:
[1] = target: T1, IDO1 (A172+IFNg cells, high IDO expressing cells) (Homo sapiens, UniProt P14902); assay: NFK GreenScreen cell assay, inhibition of IDO in A172+IFNg cells; type: cell-based; conditions: read-out: IDO cell Fluor EC50
T1 construct: A172+IFNg cells (high IDO expressing cells); endogenous in cells; host or cells: A172 cells induced with 100 ng/ml IFNγ
From the text: (§1) Cells are counted on a Vi-Cell (Beckman Coulter). […] The final DMSO concentration is 0.5%.

[2] = target: T2, TDO2 (SW48 cells, high TDO expressing cells) (Homo sapiens, UniProt P48775); assay: NFK GreenScreen cell assay, inhibition of TDO in SW48 cells; type: cell-based; conditions: read-out: TDO2 Cell Fluor EC50
T2 construct: SW48 cells (high TDO expressing cells); endogenous in cells; host or cells: SW48 cells
From the text: as §1

T1 sequence (P14902 whole entry): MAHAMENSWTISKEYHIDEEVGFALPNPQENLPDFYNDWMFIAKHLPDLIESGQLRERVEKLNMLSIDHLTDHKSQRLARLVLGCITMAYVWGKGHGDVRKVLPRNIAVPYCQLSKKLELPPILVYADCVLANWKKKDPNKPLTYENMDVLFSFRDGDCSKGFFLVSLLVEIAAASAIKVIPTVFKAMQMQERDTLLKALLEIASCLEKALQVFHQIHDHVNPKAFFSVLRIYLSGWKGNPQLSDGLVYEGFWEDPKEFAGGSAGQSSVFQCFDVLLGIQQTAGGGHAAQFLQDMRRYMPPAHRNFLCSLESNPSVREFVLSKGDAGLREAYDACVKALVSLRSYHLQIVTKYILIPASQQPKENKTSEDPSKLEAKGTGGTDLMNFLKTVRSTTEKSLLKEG
T2 sequence (P48775 whole entry): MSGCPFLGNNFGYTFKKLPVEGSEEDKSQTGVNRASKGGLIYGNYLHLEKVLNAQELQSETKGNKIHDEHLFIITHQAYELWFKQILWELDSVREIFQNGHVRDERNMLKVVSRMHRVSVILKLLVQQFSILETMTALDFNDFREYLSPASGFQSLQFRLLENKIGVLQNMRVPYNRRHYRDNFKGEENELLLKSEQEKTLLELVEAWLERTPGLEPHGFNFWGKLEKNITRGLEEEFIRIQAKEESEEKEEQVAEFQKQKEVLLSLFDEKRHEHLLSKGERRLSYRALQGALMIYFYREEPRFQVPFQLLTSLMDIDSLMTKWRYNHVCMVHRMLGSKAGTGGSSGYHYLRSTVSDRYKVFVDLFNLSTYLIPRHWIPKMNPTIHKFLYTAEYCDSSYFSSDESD

Row | EC50 [1] | EC50 [2] | SMILES
1 | 8.8 µM |  | CC(C)(C)OC(=O)N1CC2CCC(C1)C21C[C@H]([C@H]2c3ccccc3-c3cncn32)[C@@H]1O (stereo partly drawn) [Example 22c, tert-butyl (2′S,3′R)-2′-hydroxy-3′-((S)-5H-imidazo[5,1-a]isoindol-5-yl)-3-azaspiro[bicyclo[3.2.1]octane-8,1′-cyclobutane]-3-carboxylate]
2 | 4.8 µM | 5.9 µM | N#CCS(=O)(=O)N1CCC2(CC1)C[C@H]([C@@H]1c3ccccc3-c3cncn31)[C@@H]2O [Example 21c, (2R,3S)-2-[[3-hydroxy-2-((5R)-5H-imidazo[1,5-b]isoindol-5-yl)-7-azaspiro[3.5]nonan-7-yl]sulfonyl]acetonitrile]
3 | 0.64 µM | 0.14 µM | CC(C)(C)OC(=O)N[C@H]1CC[C@@]2(CC1)C[C@@H]([C@H]1c3ccccc3-c3cncn31)[C@@H]2O (single isomer, unassigned) [Example 24j]
4 | 5.9 µM | 0.4 µM | CS(=O)(=O)N1CCC2(CC1)C[C@H]([C@@H]1c3ccccc3-c3cncn31)[C@@H]2O (single isomer, unassigned) [Example 6a]
5 | 0.035 µM | 0.15 µM | O=S(=O)(C1CCC1)N1CCC2(CC1)C[C@@H]([C@H]1c3ccccc3-c3cncn31)[C@H]2O [compound 36, 7-cyclobutylsulfonyl-2-(5H-imidazo[1,5-b]isoindol-5-yl)-7-azaspiro[3.5]nonan-3-ol]
6 | 13 µM | 14 µM | CC(C)(C)OC(=O)N1CC2(CC[C@@H]([C@@H]3c4ccccc4-c4cncn43)[C@@H]2O)C1 (single isomer, unassigned) [Example 3c]
7 | 0.087 µM | 0.26 µM | O=C(OCC(F)F)N1CCC2(CC1)C[C@@H]([C@H]1c3ccccc3-c3cncn31)[C@H]2O [compound 57, 2,2-difluoroethyl (2S,3R)-3-hydroxy-2-[(5S)-5H-imidazo[1,5-b]isoindol-5-yl]-7-azaspiro[3.5]nonane-7-carboxylate]
8 | 0.56 µM | 0.53 µM | CCC(=O)N1CCC2(CC1)CC(C1c3ccccc3-c3cncn31)C2O (stereo not shown) [compound 49, 1-[3-hydroxy-2-(5H-imidazo[1,5-b]isoindol-5-yl)-7-azaspiro[3.5]nonan-7-yl]propan-1-one]
9 | 0.12 µM | 0.47 µM | N#CC1(C(=O)N2CCC3(CC2)C[C@@H]([C@H]2c4ccccc4-c4cncn42)[C@H]3O)CC1 [compound 61, 1-[3-hydroxy-2-(5H-imidazo[1,5-b]isoindol-5-yl)-7-azaspiro[3.5]nonan-7-carbonyl]cyclopropanecarbonitrile]
10 | 0.15 µM | 0.14 µM | CS(=O)(=O)N1CC2CCC(C1)C21CC(C2c3ccccc3-c3cncn32)C1O (single isomer, unassigned) [compound 70, 3′(5H-imidazo[5,1-a]isoindol-5-yl)-3-(methylsulfonyl)-3-azaspiro[bicyclo[3.2.1]octane-8,1′-cyclobutan]-2′-ol]
11 | 4.4 µM | 6.9 µM | CC(C)(C)OC(=O)N[C@H]1CC[C@@]2(CC1)C[C@H]([C@@H]1c3ccccc3-c3cncn31)[C@H]2O (single isomer, unassigned) [Example 24a]
12 | 2 µM | 2.4 µM | O=C(C1CCOC1)N1CCC2(CC1)C[C@@H]([C@H]1c3ccccc3-c3cncn31)[C@H]2O (stereo partly shown) [compound 46, [3-hydroxy-2-(5H-imidazo[1,5-b]isoindol-5-yl)-7-azaspiro[3.5]nonan-7-yl]-tetrahydrofuran-3-yl-methanone]
13 | 0.92 µM | 1.2 µM | CC(C)(C)OC(=O)N1[C@@H]2CC[C@H]1C[C@]1(C[C@H]([C@@H]3c4ccccc4-c4cncn43)[C@@H]1O)C2 [Example 12a, tert-butyl (1R,2′S,3r,3′R,5S)-2′-hydroxy-3′-((R)-5H-imidazo[5,1-a]isoindol-5-yl)-8-azaspiro[bicyclo[3.2.]octane-3,1′-cyclobutane]-8-carboxylate]
14 | 0.63 µM | 2.3 µM | O=C(c1cnn2c1OCCC2)N1CCC2(CC1)CC(C1c3ccccc3-c3cncn31)C2O (stereo not shown) [compound 38, 6,7-dihydro-5H-pyrazolo[5,1-b][1,3]oxazin-3-yl-[3-hydroxy-2-(5H-imidazo[1,5-b]isoindol-5-yl)-7-azaspiro[3.5]nonan-7-yl]methanone]
15 | 1.1 µM | 0.072 µM | CC(C)(C)OC(=O)N1CC2(CC[C@H]([C@@H]3c4ccccc4-c4cncn43)[C@@H]2O)C1 (single isomer, unassigned) [Example 3b]
16 |  | 11 µM | NS(=O)(=O)N1CCC2(CC1)C[C@@H]([C@@H]1c3ccccc3-c3cncn31)[C@@H]2O (single isomer, unassigned) [Example 11h]
17 | 0.15 µM | 0.18 µM | N#CCS(=O)(=O)N1CCC2(CC1)CC(C1c3ccccc3-c3cncn31)C2O (stereo not shown) [Example 21a, 2-[[3-hydroxy-2-(5H-imidazo[,5-b]isoindol-5-yl)-7-azaspiro[3.5]nonan-7-yl]sulfonyl]acetonitrile]
18 | 20 µM | 0.66 µM | NS(=O)(=O)N1CCC2(CC1)C[C@H]([C@@H]1c3ccccc3-c3cncn31)[C@@H]2O (single isomer, unassigned) [Example 11a]
19 | 0.35 µM | 0.34 µM | O=C(NCC(F)F)N1CCC2(CC1)C[C@@H]([C@H]1c3ccccc3-c3cncn31)[C@H]2O [compound 58, N-(2,2-difluoroethyl)-3-hydroxy-2-(5H-imidazo[1,5-b]isoindol-5-yl)-7-azaspiro[3.5]nonane-7-carboxamide]
20 | 0.24 µM | 0.37 µM | Cc1cc(CC(=O)N2CCC3(CC2)C[C@@H]([C@H]2c4ccccc4-c4cncn42)[C@H]3O)no1 [compound 54, 1-[3-hydroxy-2-(5H-imidazo[1,5-b]isoindol-5-yl)-7-azaspiro[3.5]nonan-7-yl]-2-(5-methylisoxazol-3-yl)ethanone]
21 |  | 23 µM | O=C(C1CCc2nncn2C1)N1CCC2(CC1)CC(C1c3ccccc3-c3cncn31)C2O (stereo not shown) [compound 67, [3-hydroxy-2-(5H-imidazo[1,5-b]isoindol-5-yl)-7-azaspiro[3.5]nonan-7-yl]-(5,6,7,8-tetrahydro-[1,2,4]triazolo[4,3-a]pyridin-6-yl)methanone]
22 | 0.16 µM | 0.31 µM | Cc1cc(CC(=O)N2CCC3(CC2)CC(C2c4ccccc4-c4cncn42)C3O)on1 (stereo not shown) [compound 63, 1-[3-hydroxy-2-(5H-imidazo[1,5-b]isoindol-5-yl)-7-azaspiro[3.5]nonan-7-yl]-2-(3-methylisoxazol-5-yl)ethanone]
23 | 1.8 µM | 1.1 µM | CC(C)(C)OC(=O)N[C@H]1CC[C@]2(CC1)C[C@H]([C@H]1c3ccccc3-c3cncn31)[C@@H]2O [Example 24g, tert-butyl ((1S,2R,4r,7S)-1-hydroxy-2-((S)-5H-imidazo[5,1-a]isoindol-5-yl)spiro[3.5]nonan-7-yl)carbamate]
24 |  | 24 µM | CC(=O)N1CCC2(CC[C@@H]([C@H]3c4ccccc4-c4cncn43)[C@H]2O)CC1 (single isomer, unassigned) [Example 10a]
25 |  | 3 µM | NS(=O)(=O)N1CCC2(CC1)C[C@@H]([C@H]1c3ccccc3-c3cncn31)[C@@H]2O (single isomer, unassigned) [Example 11d]
26 |  | 20 µM | CC(C)(C)OC(=O)N[C@H]1CC[C@]2(CC1)C[C@@H]([C@H]1c3ccccc3-c3cncn31)[C@@H]2O (single isomer, unassigned) [Example 24o]
